Assay results as given in paper PMC9515629, “Cystargolide-based amide and ester Pz analogues as proteasome inhibitors and anti-cancer agents” (Royal Society Open Science, 2022).
Where two headings read alike, the source gives them in different places.

Tests used:
[1] = target: T1, β5 subunit of human proteasomes (hβ5) (Homo sapiens, UniProt P28074); test: Proteasome chymotrypsin-like (β5) activity in crude Jurkat cell lysate, Suc-LLVY-AMC substrate; type: biochemical; details: read-out: proteasome inhibition IC50 ± s.d., hβ5
T1 construct: endogenous in cells; host or cells: Jurkat cell lysate (crude)
T1 sequence (P28074 60-263): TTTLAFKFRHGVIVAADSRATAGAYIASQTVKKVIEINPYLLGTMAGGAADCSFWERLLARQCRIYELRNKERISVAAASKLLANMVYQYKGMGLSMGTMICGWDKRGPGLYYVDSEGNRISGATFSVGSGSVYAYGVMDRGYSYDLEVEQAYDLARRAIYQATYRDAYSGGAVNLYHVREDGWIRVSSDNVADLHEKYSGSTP
Description: Based on our previously reported procedure, the degree of peptide cleavage in a crude Jurkat cell lysate was measured to determine proteasome activity. The fluorescent substrate Suc-LLVY-AMC (Enzo Life Sciences) was used to determine chymotrypsin-like (β5) activity of the proteasomes.

[2] = system: Jurkat cells; test: Cytotoxicity toward Jurkat cells; type: cell-based; details: Homo sapiens, read-out: cytotoxicity IC50 ± s.d., Jurkat
Description: (§1) Next, analogues 8a–l were evaluated for their cytotoxicities toward Jurkat cells, a human T-cell leukemia model, as well as the breast cancer cell lines MCF-7 and MDA-MB-231, and the multiple myeloma cell line RPMI 8226.

[3] = system: RPMI 8226 cells; test: Cytotoxicity toward RPMI 8226 cells; type: cell-based; details: Homo sapiens, read-out: cytotoxicity IC50 ± s.d., RPMI 8226
Description: as §1

[4] = system: MCF-7 cells; test: Cytotoxicity toward MCF-7 cells; type: cell-based; details: Homo sapiens, MCF7; read-out: cytotoxicity IC50 ± s.d., MCF-7
Description: as §1

[5] = system: MDA-MB-231 cells; test: Cytotoxicity toward MDA-MB-231 cells; type: cell-based; details: Homo sapiens, read-out: cytotoxicity IC50 ± s.d., MDA-MB-231
Description: as §1

[6] = system: MCF-10A cells; test: Cytotoxicity toward MCF-10A cells (normal breast tissue model); type: cell-based; details: Homo sapiens, model for normal breast tissue
[7] = Experimentally determined LogP; type: physicochemical
[8] = Half-life in buffer; type: physicochemical
Description: (§2) Isosteric replacement of the phenyl ring at Pz by either a pyridyl or pyrazyl group was well tolerated, allowing the inclusion of one (compounds 8b–d and 8g–i) or two nitrogen atoms (compounds 8e and 8j).

[9] = Biological stability in serum; type: in vitro ADME
Description: as §2

[10] = cited from earlier work
[11] = system: RPMI 8226 cells; set-up: method as in PMID 30165344; details: earlier work; read-out: cytotoxicity IC50, RPMI 8226; cited from earlier work
[12] = system: MCF-7 cells; set-up: method as in PMID 30165344; details: earlier work; read-out: cytotoxicity IC50, MCF-7; cited from earlier work
[13] = system: MDA-MB-231 cells; set-up: method as in PMID 30165344; details: earlier work; read-out: cytotoxicity IC50, MDA-MB-231; cited from earlier work

IC50 [1]	logP [7]	half-life [8]	biological stability in serum [9]	Structure (SMILES)	IC50 [2]	IC50 [3]	IC50 [4]	IC50 [5]	IC50 [6]	peripheral neuropathy, share of patients [10]	IC50 [11]	IC50 [12]	IC50 [13]
0.0023 ± 0.0009 µM				CC[C@H](C)[C@@H]1C(=O)O[C@H]1C(=O)N[C@H](C(=O)N[C@@H](COCc1ccccc1)C(=O)NCc1ccccc1)C(C)C [8a]	0.012 ± 0.002 µM	0.064 ± 0.004 µM	2.29 ± 0.195 µM	1.94 ± 0.166 µM					
0.0041 ± 0.0019 µM				CC[C@H](C)[C@@H]1C(=O)O[C@H]1C(=O)N[C@H](C(=O)N[C@@H](COCc1ccccc1)C(=O)NCc1ccccn1)C(C)C [8b]	0.058 ± 0.014 µM	0.139 ± 0.006 µM	0.453 ± 0.024 µM	0.156 ± 0.003 µM					
0.0039 ± 0.0018 µM				CC[C@H](C)[C@@H]1C(=O)O[C@H]1C(=O)N[C@H](C(=O)N[C@@H](COCc1ccccc1)C(=O)NCc1cccnc1)C(C)C [8c]	0.071 ± 0.019 µM	0.085 ± 0.003 µM	5.63 ± 0.55 µM	0.242 ± 0.006 µM					
0.003 ± 0.0012 µM				CC[C@H](C)[C@@H]1C(=O)O[C@H]1C(=O)N[C@H](C(=O)N[C@@H](COCc1ccccc1)C(=O)NCc1ccncc1)C(C)C [8d]	0.064 ± 0.01 µM	0.037 ± 0.001 µM	5.3 ± 0.598 µM	0.328 ± 0.012 µM					
0.0084 ± 0.0034 µM				CC[C@H](C)[C@@H]1C(=O)O[C@H]1C(=O)N[C@H](C(=O)N[C@@H](COCc1ccccc1)C(=O)NCc1cnccn1)C(C)C [8e]	0.132 ± 0.004 µM	0.031 ± 0.002 µM	5.18 ± 0.602 µM	0.255 ± 0.006 µM					
0.0045 ± 0.0015 µM				CC[C@H](C)[C@@H]1C(=O)O[C@H]1C(=O)N[C@H](C(=O)N[C@@H](COCc1ccccc1)C(=O)NCc1cc(OC)cc(OC)c1)C(C)C [8f]	0.063 ± 0.002 µM	0.026 ± 0.001 µM	0.322 ± 0.039 µM	0.053 ± 0.002 µM					
0.0071 ± 0.0016 µM	1.65	> 10 min	greater than 5 min	CC[C@H](C)[C@@H]1C(=O)O[C@H]1C(=O)N[C@H](C(=O)N[C@@H](COCc1ccccc1)C(=O)OCc1ccccn1)C(C)C [8g]	0.035 ± 0.01 µM	0.021 ± 0.003 µM	1.02 ± 0.042 µM	0.039 ± 0.002 µM	0.123 µM				
0.0033 ± 0.0018 µM				CC[C@H](C)[C@@H]1C(=O)O[C@H]1C(=O)N[C@H](C(=O)N[C@@H](COCc1ccccc1)C(=O)OCc1cccnc1)C(C)C [8h]	0.061 ± 0.016 µM	0.043 ± 0.002 µM	3.8 ± 0.293 µM	0.132 ± 0.003 µM					
0.004 ± 0.0011 µM				CC[C@H](C)[C@@H]1C(=O)O[C@H]1C(=O)N[C@H](C(=O)N[C@@H](COCc1ccccc1)C(=O)OCc1ccncc1)C(C)C [8i]	0.036 ± 0.01 µM	0.035 ± 0.003 µM	4.93 ± 0.403 µM	0.108 ± 0.007 µM					
0.0137 ± 0.0016 µM				CC[C@H](C)[C@@H]1C(=O)O[C@H]1C(=O)N[C@H](C(=O)N[C@@H](COCc1ccccc1)C(=O)OCc1cnccn1)C(C)C [8j]	0.166 ± 0.009 µM	0.048 ± 0.002 µM	4.53 ± 0.29 µM	0.146 ± 0.003 µM					
0.0182 ± 0.054 µM				CC[C@H](C)[C@@H]1C(=O)O[C@H]1C(=O)N[C@H](C(=O)N[C@@H](COCc1ccccc1)C(=O)OCc1ccc(Cl)cc1)C(C)C [8k]	0.182 ± 0.015 µM	0.182 ± 0.004 µM	3.5 ± 0.279 µM	0.222 ± 0.015 µM					
0.0188 ± 0.005 µM				CC[C@H](C)[C@@H]1C(=O)O[C@H]1C(=O)N[C@H](C(=O)N[C@@H](COCc1ccccc1)C(=O)OCc1ccc(OC)cc1)C(C)C [8l]	2.26 ± 0.158 µM	0.112 ± 0.002 µM	1.67 ± 0.267 µM	0.636 ± 0.047 µM					
				CC(C)C[C@H](NC(=O)[C@H](Cc1ccccc1)NC(=O)c1cnccn1)B(O)O [bortezomib]						more than 30%			
				CC(C)C[C@H](NC(=O)[C@H](CCc1ccccc1)NC(=O)CN1CCOCC1)C(=O)N[C@@H](Cc1ccccc1)C(=O)N[C@@H](CC(C)C)C(=O)[C@@]1(C)CO1 [carfilzomib, reference compound]	0.0037 ± 0.0003 µM	0.0037 ± 0.0003 µM	0.0059 ± 0.0007 µM	0.0044 ± 0.0001 µM	0.079 µM				
				CC[C@H](C)[C@@H]1C(=O)O[C@H]1C(=O)N[C@H](C(=O)N[C@@H](COCc1ccccc1)C(=O)OCc1ccccc1)C(C)C [compound 1]	0.062 ± 0.007 µM	0.045 ± 0.0005 µM	2.38 ± 0.261 µM	0.62 ± 0.05 µM			0.041 µM	0.416 µM	0.074 µM
